Structures are written as SMILES. Where a name gives a salt, the structure may show the parent alone. Where only a bound is given, the exact number is not on record here.

What is called IC50 is the point on the concentration scale where inhibition reaches its midpoint. Lower therefore signals inhibition by little substance.

Assay [1] relates to platelet aggregation. Nature of the assay: Inhibition of platelet aggregation in Guinea pig (ADP-induced, platelet-rich plasma). Format: cell-based, male guinea pig. To be noted: Cavia porcellus, guinea pig PRP, ADP final concentration 5 μM, 37° C. How it is done:
1. Inhibition of platelet aggregation in Guinea pig
Blood of male guinea pig was collected with an injection syringe which contains 3.8% sodium citrate as an anticoagulant in a ratio of 1 volume to 9 volumes of the blood. Successively, the collected blood mixture was subjected to centrifugation at 120×g for 15 minutes at room temperature to obtain platelet-rich plasma (PRP). The residual blood after separating PRP was further subjected to centrifugation at 1,200×g for 15 minutes to obtain platelet-poor plasma (PPP). Numbers of the platelet in PRP were measured with an automatic platelet counter: Sysmex PL-100 (manufactured by Toa Iyodensi Co.) and PRP was diluted with PPP so as to adjust a platelet concentration to be about 300,000 particles/μ 1. Platelet aggregation was measured by the following procedure with a 6 channel aggregometer: HEMA TRACER 1 (manufactured by NKK Co.).
After warming 240 μl of PRP at 37° C. for 2 minutes, 30 μl of the solvent of specimen as a control or of the specimen having various concentrations was added to PRP. Further 2 minutes later, 30 μl of adenosine diphosphate (final concentration: 5 μM) was added to induce platelet aggregation. An inhibition percentage was obtained by comparing the maximum aggregation rate of the specimen drug group with that of control. […]

Assay [2] deals with platelet aggregation. Put plainly: Inhibition of platelet aggregation in human (ADP-induced, platelet-rich plasma). It is filed as cell-based. The following applies: human PRP, ADP final concentration 5 μM, 37° C. On the procedure:
2. Inhibition of platelet aggregation in human
Blood was collected from healthy human volunteers with an injection syringe and mixed one volume of 3.8% sodium citrate as an anticoagulant to 9 volumes of the blood. Successively, the obtained blood mixture was subjected to centrifugation at 120×g for 15 minutes at room temperature to obtain platelet-rich plasma (PRP). The residual blood after separating the PRP was further subjected to centrifugation at 1,200×g for 20 minutes to obtain platelet-poor plasma (PPP). Numbers of the platelet were measured with an automatic platelet counter: Sysmex PL-100 (manufactured by Toa Iyodensi Co.) and PRP was diluted with PPP so as to adjust a platelet concentration to be about 250,000 particles/μl. Platelet aggregation was measured by the following procedure with a 6 channel aggregometer: HEMA TRACER 1 (manufactured by NKK Co.)
After warming 240 μl of PRP at 37° C. for 2 minutes, 30 μl of the solvent of specimen as a control or the specimen having various concentrations was added to PRP. Further 2 minutes later, 30 μl of adenosine diphosphate (final concentration: 5 μM) was added to induce platelet aggregation. An inhibition percentage was obtained by comparing the maximum aggregation rate of the specimen drug group with that of control. […]

As to `N=C(N)c1ccc(C(=O)Nc2ccc3c(c2)C(=O)N(CC(=O)O)CC3)cc1` [Comparative compound, 7-[(4-amidinobenzoyl)amino]-l-oxo-3,4-dihydroisoquinolone-2-acetic acid hydrochloride, reference compound], the values for the IC50 in assay [1] and in assay [2] were more than 100000 nM and 3900 nM, respectively.
In the case of `N=C(N)c1ccc(C(=O)Nc2ccc3c(c2)CC(CC(=O)O)CC3)cc1` (stereo not shown) [Compound No. 1, 7-[(4-amidinobenzoyl)amino]-1,2,3,4-tetrahydronaphthalene-2-acetic acid], the results for the IC50 in assay [1] and in assay [2] were 370 nM and 57 nM, respectively.
In assay [1], `CCOC(=O)CC1CCc2ccc(NC(=O)c3ccc(C(=N)N)cc3)cc2C1` (stereo not shown) [Compound No. 3, ethyl 7-[(4-amidinobenzoyl)amino]-1,2,3,4-tetrahydronaphthalene-2-acetate] registered an IC50 of 400 nM. That is a sub-micromolar value.
`N=C(N)c1ccc(NC(=O)c2ccc3c(c2)CC(CC(=O)O)CC3)cc1` (stereo not shown) [Compound No. 9, 7-[N-(4-amidinophenyl)carbamoyl]-1,2,3,4-tetrahydronaphthalene-2-acetic acid]: the results for the IC50 in assay [1] and in assay [2] were 230 nM and 46 nM, respectively.
In assay [1], `CCOC(=O)CC1CCc2ccc(C(=O)Nc3ccc(C(=N)N)cc3)cc2C1` (stereo not shown) [Compound No. 11, ethyl 7-[N-(4-amidinophenyl)carbamoyl]-1,2,3,4-tetrahydronaphthalene-2-acetate] returned an IC50 of 340 nM.
Consider `N=C(N)c1ccc(C(=O)Nc2ccc3c(c2)CC(CC(=O)O)CO3)cc1` (stereo not shown) [Compound No. 17, 6-[(4-amidinobenzoyl)amino]chroman-3-acetic acid], for which the IC50 in assay [2] is 49 nM.
For the molecule `N=C(N)c1ccc(C(=O)Nc2ccc3c(c2)CN(CC(=O)O)CC3)cc1` [Compound No. 28, 7-[(4-amidinobenzoyl)amino]-1,2,3,4-tetrahydroisoquinoline-2-acetic acid], the IC50 in assay [1] is 6600 nM; in assay [2] it was 293 nM.
Regarding `CN(C(=O)c1ccc(C(=N)N)cc1)c1ccc2c(c1)CC(CC(=O)O)CC2` (stereo not shown) [Compound No. 47, 7-[N-(4-amidinobenzoyl)-N-methylamino]-1,2,3,4-tetrahydronaphthalene-2-acetic acid], the IC50 was determined as 1770 nM in assay [1] and 194 nM in assay [2].
As to `CN(C(=O)c1ccc2c(c1)CC(CC(=O)O)CC2)c1ccc(C(=N)N)cc1` (stereo not shown) [Compound No. 56, 7-[N-(4-amidinophenyl)-N-methylcarbamoyl]-1,2,3,4-tetrahydronaphthalene-2-acetic acid], the IC50 is 340 nM in assay [1] and 115 nM in assay [2].
`N=C(N)c1ccc(COc2ccc3c(c2)CC(CC(=O)O)CC3)cc1` (stereo not shown) [Compound No. 80, 7-[(4-amidinobenzyl)oxy]-1,2,3,4-tetrahydronaphthalene-2-acetic acid] came in with an IC50 in assay [2] of 1500 nM.
Molecule `COC(=O)CC1CCc2ccc(OCc3ccc(C(=N)N)cc3)cc2C1` (stereo not shown) [Compound No. 81, methyl 7-[(4-amidinobenzyl)oxy]-1,2,3,4-tetrahydronaphthalene-2-acetate] registered an IC50 in assay [1] of 22000 nM.
Molecule `N=C(N)c1ccc(OCc2ccc3c(c2)CC(CC(=O)O)CC3)cc1` (stereo not shown) [Compound No. 82, 7-[(4-amidinophenoxy)methyl]-1,2,3,4-tetrahydronaphthalene-2-acetic acid] yielded an IC50 in assay [1] of 39000 nM.
With `N=C(N)c1ccc(CNc2ccc3c(c2)CC(CC(=O)O)CC3)cc1` (stereo not shown) [Compound No. 84, 7-[(4-amidinobenzyl)amino]-1,2,3,4-tetrahydronaphthalene-2-acetic acid], inhibition in assay [1] was half-maximal at 24000 nM (IC50).
In turn, `N=C(N)c1ccc(COc2ccc3c(c2)CC(CC(=O)O)CO3)cc1` (stereo not shown) [Compound No. 89, 6-[(4-amidinobenzyl)oxy]chroman-3-acetic acid] displayed an IC50 in assay [1] of 12000 nM.
On the same count and under the same terms, to `CCOC(=O)CC1COc2ccc(OCc3ccc(C(=N)N)cc3)cc2C1` (stereo not shown) [Compound No. 90, ethyl 6-[(4-amidinobenzyl)oxy]chroman-3-acetate] belongs 17000 nM; to `N=C(N)c1ccc(COc2ccc3c(c2)C=C(CC(=O)O)CC3)cc1` [Compound No. 91, 7-[(4-amidinobenzyl)oxy]-3,4-dihydronaphthalene-2-acetic acid], 41000 nM.
`N=C(N)Nc1ccc(C(=O)Nc2ccc3c(c2)CC(CC(=O)O)CC3)cc1` (stereo not shown) [Compound No. 93, 7-[(4-guanidinobenzoyl)amino]-1,2,3,4-tetrahydronaphthalene-2-acetic acid] gave an IC50 in assay [1] of 27000 nM. This IC50 is about 1.5-fold lower than that of the molecule before.
Same read-out and setting: the value for `NCc1ccc(C(=O)Nc2ccc3c(c2)CC(CC(=O)O)CC3)cc1` (stereo not shown) [Compound No. 123, 7-[(4-aminomethylbenzoyl)amino]-1,2,3,4-tetrahydronaphthalene-2-acetic acid] was 14000 nM; that for `CCOC(=O)CN1CCc2ccc(C(=O)Nc3ccc(C(=N)N)cc3)cc2C1` [compound 37, ethyl 7-[N-(4-amidinophenyl)carbamoyl]-1,2,3,4-tetrahydroisoquinoline-2-acetate] was 4300 nM.

The values above are taken from US5629321A, “Bicyclic compound and platelet aggregation inhibitor containing the same” (Mitsui Toatsu Chemicals, Inc., priority 1994, dated 1997).
